# Data from patent US4217274A, “Methoxyethoxymethyl esters of penicillins” (Bristol-Myers Company, priority 1978, dated 1980).
# Like-named read-outs stand apart in the source and are kept apart here.
# Columns and labels:
# Str. pyogenes = experiment: MIC, antibiotic dilution technique (agar); format: cell-based, S. pyogenes; conditions: Streptococcus pyogenes
# From the text: (§1) Bacteria. The organisms, preponderantly of recent clinical origin, were obtained from numerous sources of broad geographical distribution. Obligate anaerobes were maintained in Egg Meat Medium (Difco); Mycobacterium was stored on Lowenstein Medium (Jensen Modification; Difco). The techniques of storing all other organisms have been described previously [Leitner et al., BL-S640, A Cephalosporin with a Broad Spectrum of Antibacterial Activity: Properties in vitro, Antimicrob. Agents Chemother., 7, 298-305 (1975)].
# (§2) Antibiotic spectrum. The growth-inhibitory activity of the compounds was determined by the antibiotic dilution technique. Procedures were as follows:
# (§3) Aerobic organisms (excluding Mycobacterium). Except for Haemophilus and Neisseria, the assay was performed in Mueller-Hinton Medium (Difco). For fastidious organisms, i.e., Streptococcus, Listeria, Pasteurella, Bordetella and Vibrio, the medium was supplemented with 4% defibrinated sheep blood. The antibiotic susceptibility of Haemophilus and Neisseria was determined in GC Medium Base (BBL) supplemented with 1% Hemoglobin (BBL) and 1% Isovitalex (BBL).
# (§4) Overnight broth cultures of an exponentially growing culture (Neisseria) served as the source of inoculum. A volume of approximately 0.003 ml. of the undiluted or diluted culture was applied to the surface of the antibiotic-containing agar plates with the inoculator of Steers et al., An Inocula Replicating Apparatus for Routine Testing of Bacterial Susceptibility to Antibiotics, Antibiot. Chemother., 9, 307-311, (1959). Cultures of Neisseria, Streptococcus pneumoniae, S. viridans and S. pyogenes were used without dilution; those of all other organisms were diluted 100-fold. The inoculum contained about 10^3 viable cells for Neisseria, 10^5 for S. pneumoniae and S. pyogenes, 10^6 for S. viridans and 10^4 for all other species.
# E. Coli [1] = experiment: MIC, antibiotic dilution technique (agar); format: cell-based; conditions: Escherichia coli
# From the text: as §1, §2, §3, §4
# Ent. cloacae = experiment: MIC, antibiotic dilution technique (agar); format: cell-based; conditions: Enterobacter cloacae
# From the text: as §1, §2, §3, §4
# K. pneumoniae [2] = experiment: MIC, antibiotic dilution technique (agar); format: cell-based; conditions: Klebsiella pneumoniae
# From the text: as §1, §2, §3, §4
# Pr. mirabilis = experiment: MIC, antibiotic dilution technique (agar); format: cell-based; conditions: Proteus mirabilis
# From the text: as §1, §2, §3, §4
# Pr. morganii = experiment: MIC, antibiotic dilution technique (agar); format: cell-based; conditions: Morganella morganii
# From the text: as §1, §2, §3, §4
# Pr. rettgeri = experiment: MIC, antibiotic dilution technique (agar); format: cell-based; conditions: Providencia rettgeri
# From the text: as §1, §2, §3, §4
# Pr. vulgaris = experiment: MIC, antibiotic dilution technique (agar); format: cell-based; conditions: Proteus vulgaris
# From the text: as §1, §2, §3, §4
# Ps. aeruginosa = experiment: MIC, antibiotic dilution technique (agar); format: cell-based; conditions: Pseudomonas aeruginosa
# From the text: as §1, §2, §3, §4
# S. aureus Meth-Res. = experiment: MIC, antibiotic dilution technique (agar); format: cell-based; conditions: Staphylococcus aureus
# From the text: as §1, §2, §3, §4
# S. aureus Pen-Res. = experiment: MIC, antibiotic dilution technique (agar); format: cell-based; conditions: Staphylococcus aureus
# From the text: as §1, §2, §3, §4
# S. aureus = experiment: MIC, antibiotic dilution technique (agar); format: cell-based; conditions: Staphylococcus aureus
# From the text: as §1, §2, §3, §4
# Ser. marcescens = experiment: MIC, antibiotic dilution technique (agar); format: cell-based; conditions: Serratia marcescens
# From the text: as §1, §2, §3, §4
# Str. faecalis = experiment: MIC, antibiotic dilution technique (agar); format: cell-based; conditions: Enterococcus faecalis
# From the text: as §1, §2, §3, §4
# Str. pneumoniae = experiment: MIC, antibiotic dilution technique (agar); format: cell-based; conditions: Streptococcus pneumoniae
# From the text: as §1, §2, §3, §4
# E. Coli [3] = experiment: MIC, antibiotic dilution technique (agar), Table 4; format: cell-based; conditions: Escherichia coli
# From the text: as §1, §2, §3, §4
# E. cloacae = experiment: MIC, antibiotic dilution technique (agar), Table 4; format: cell-based; conditions: Enterobacter cloacae; Table 4, 2 strains, geometric mean where applicable
# From the text: as §1, §2, §3, §4
# K. pneumoniae [4] = experiment: MIC, antibiotic dilution technique (agar), Table 4; format: cell-based; conditions: Klebsiella pneumoniae, Table 4, K. pneumoniae, read-out: MIC
# From the text: as §1, §2, §3, §4
# P. mirabilis = experiment: MIC, antibiotic dilution technique (agar), Table 4; format: cell-based; conditions: Proteus mirabilis, Table 4, P. mirabilis, geometric mean where applicable, read-out: MIC
# From the text: as §1, §2, §3, §4
# P. rettgeri = experiment: MIC, antibiotic dilution technique (agar), Table 4; format: cell-based; conditions: Providencia rettgeri
# From the text: as §1, §2, §3, §4
# [5] = tested on: S. aureus (lacking penase); experiment: MIC, antibiotic dilution technique (agar), Table 4; format: cell-based; conditions: Staphylococcus aureus; Table 4, 6 strains, geometric mean where applicable
# From the text: as §1, §2, §3, §4
# S. faecalis = experiment: MIC, antibiotic dilution technique (agar), Table 4; format: cell-based; conditions: Enterococcus faecalis; Table 4, 6 strains, geometric mean where applicable
# From the text: as §1, §2, §3, §4
# S. marcescens = experiment: MIC, antibiotic dilution technique (agar), Table 4; format: cell-based
# From the text: as §1, §2, §3, §4
# S. pneumoniae = experiment: MIC, antibiotic dilution technique (agar), Table 4; format: cell-based; conditions: Streptococcus pneumoniae; Table 4, 7 strains, geometric mean where applicable
# From the text: as §1, §2, §3, §4
# S. pyogenes = experiment: MIC, antibiotic dilution technique (agar), Table 4; format: cell-based; conditions: Streptococcus pyogenes; Table 4, 6 strains, geometric mean where applicable
# From the text: as §1, §2, §3, §4
# S. viridans = experiment: MIC, antibiotic dilution technique (agar), Table 4; format: cell-based; conditions: Streptococcus viridans
# From the text: as §1, §2, §3, §4
# [6] = tested on: Streptococcus sp. (β-hemolytic); experiment: MIC, antibiotic dilution technique (agar), Table 4; format: cell-based; conditions: Table 4, 6 strains, geometric mean where applicable
# From the text: as §1, §2, §3, §4
# p. vulgaris = experiment: MIC, antibiotic dilution technique (agar), Table 4; format: cell-based; conditions: Proteus vulgaris; Table 4, 2 strains, geometric mean where applicable
# From the text: as §1, §2, §3, §4
# [7] = Mouse blood levels after oral administration (disc diffusion bioassay, Bacillus subtilis); conditions: in vivo, 100 mg/kg
smiles,measurement,setting,value
"COCCOCOC(=O)[C@@H]1N2C(=O)[C@@H](N3C(=O)[C@@H](c4ccccc4)NC3(C)C)[C@H]2SC1(C)C [RN-1492, Methoxyethoxymethyl Ester of Hetacillin]",MIC,"Str. pyogenes; Table 1, Str. pyogenes",0.008 µg/mL
same,MIC,"E. Coli [1]; Table 1, E. Coli, first line",2 µg/mL
same,MIC,"E. Coli [1]; Table 1, E. Coli, second line",63 µg/mL
same,MIC,"Ent. cloacae; Table 1, Ent. cloacae, first line, read-out: MIC",63 µg/mL
same,MIC,"Ent. cloacae; Table 1, Ent. cloacae, second line, read-out: MIC",63 µg/mL
same,MIC,"K. pneumoniae [2]; Table 1, K. pneumoniae, first line, read-out: MIC",63 µg/mL
same,MIC,"K. pneumoniae [2]; Table 1, K. pneumoniae, second line, read-out: MIC",32 µg/mL
same,MIC,"Pr. mirabilis; Table 1, Pr. mirabilis",0.25 µg/mL
same,MIC,"Pr. morganii; Table 1, Pr. morganni, read-out: MIC",32 µg/mL
same,MIC,"Pr. rettgeri; Table 1, Pr. rettgeri",16 µg/mL
same,MIC,"Pr. vulgaris; Table 1, Pr. vulgaris",0.25 µg/mL
same,MIC,"Ps. aeruginosa; Table 1, Ps. aeruginosa, first line, read-out: MIC",63 µg/mL
same,MIC,"Ps. aeruginosa; Table 1, Ps. aeruginosa, second line, read-out: MIC",125 µg/mL
same,MIC,"S. aureus Meth-Res.; Table 1, S. aureus Meth-Res.",63 µg/mL
same,MIC,"S. aureus Pen-Res.; Table 1, S. aureus Pen-Res., read-out: MIC",> 125 µg/mL
same,MIC,"S. aureus; Table 1, S. aureus",0.06 µg/mL
same,MIC,"S. aureus; Table 1, S. aureus + 50% serum",0.13 µg/mL
same,MIC,"Ser. marcescens; Table 1, Ser. marcescens",32 µg/mL
same,MIC,"Str. faecalis; Table 1, Str. faecalis",0.5 µg/mL
same,MIC,"Str. pneumoniae; Table 1, Str. pneumoniae",0.004 µg/mL
same,MIC,E. Coli [3]; 1 strain (first line),2 µg/mL
same,MIC,E. Coli [3]; 1 strain (fourth line),> 125 µg/mL
same,MIC,E. Coli [3]; 1 strain (third line),63 µg/mL
same,MIC,"E. Coli [3]; 3 strains (second line), geometric mean where applicable",5 µg/mL
same,MIC,E. cloacae,> 125 µg/mL
same,MIC,K. pneumoniae [4]; 1 strain (first line),63 µg/mL
same,MIC,K. pneumoniae [4]; 1 strain (second line),> 125 µg/mL
same,MIC,P. mirabilis; 2 strains,> 125 µg/mL
same,MIC,P. mirabilis; 4 strains,4 µg/mL
same,MIC,"P. rettgeri; Table 4, P. retgeri, 2 strains (third line), geometric mean where applicable",63 µg/mL
same,MIC,"P. rettgeri; Table 4, P. rettgeri, 1 strain (first line)",0.25 µg/mL
same,MIC,"P. rettgeri; Table 4, P. rettgeri, 1 strain (second line)",16 µg/mL
same,MIC,[5],0.18 µg/mL
same,MIC,S. faecalis,2 µg/mL
same,MIC,S. marcescens; 1 strain (second line),> 125 µg/mL
same,MIC,"S. marcescens; Serratia marcescens, 1 strain (first line), read-out: MIC",> 125 µg/mL
same,MIC,S. pneumoniae,0.032 µg/mL
same,MIC,S. pyogenes,0.027 µg/mL
same,MIC,"S. viridans; Table 4, S. viridans, 1 strain (second line)",0.25 µg/mL
same,MIC,"S. viridans; Table 4, S. viridans, 3 strains, geometric mean where applicable",0.05 µg/mL
same,MIC,"S. viridans; Table 4, s. viridans, 1 strain (third line)",0.5 µg/mL
same,MIC,[6],0.13 µg/mL
same,MIC,p. vulgaris,0.5 µg/mL
"CC1(C)S[C@@H]2[C@H](NC(=O)[C@H](N)c3ccc(O)cc3)C(=O)N2[C@H]1C(=O)O [Amoxicillin, amoxicillin]",MIC,"Str. pyogenes; Table 2, Str. pyogenes",0.004 µg/mL
same,MIC,"E. Coli [1]; Table 2, E. coli, first line",0.5 µg/mL
same,MIC,"E. Coli [1]; Table 2, E. coli, second line",> 125 µg/mL
same,MIC,Ent. cloacae,125 µg/mL
same,MIC,"Ent. cloacae; Table 2, Ent. cloacae, first line, read-out: MIC",63 µg/mL
same,MIC,"K. pneumoniae [2]; Table 2, K. pneumoniae, first line",125 µg/mL
same,MIC,"K. pneumoniae [2]; Table 2, K. pneumoniae, second line",> 125 µg/mL
same,MIC,"Pr. mirabilis; Table 2, Pr. mirabilis",0.06 µg/mL
same,MIC,Pr. morganii,125 µg/mL
same,MIC,"Pr. rettgeri; Table 2, Pr. rettgeri",16 µg/mL
same,MIC,"Pr. vulgaris; Table 2, Pr. vulgaris",0.06 µg/mL
same,MIC,"Ps. aeruginosa; Table 2, Ps. aeruginosa, first line",125 µg/mL
same,MIC,"Ps. aeruginosa; Table 2, Ps. aeruginosa, second line",> 125 µg/mL
same,MIC,"S. aureus Meth-Res.; Table 2, S. aureus Meth-Res.",32 µg/mL
same,MIC,S. aureus Pen-Res.,> 125 µg/mL
same,MIC,"S. aureus; Table 2, S. aureus",0.03 µg/mL
same,MIC,"S. aureus; Table 2, S. aureus + 50% serum",0.06 µg/mL
same,MIC,"Ser. marcescens; Table 2, Ser. marcescens",32 µg/mL
same,MIC,"Str. faecalis; Table 2, Str. faecalis",0.06 µg/mL
same,MIC,"Str. pneumoniae; Table 2, Str. pneumoniae",0.004 µg/mL
same,concentration at 0.25 h,[7],9500 ng/mL
same,concentration at 0.5 h,[7],16900 ng/mL
same,concentration at 1 h,[7],14200 ng/mL
same,concentration at 1.5 h,[7],8700 ng/mL
same,concentration at 2 h,[7],6300 ng/mL
same,concentration at 3 h,[7],3100 ng/mL
